Literature values, collected in publication PMC4226840, “An open-label study to determine the maximum tolerated dose of the multitargeted tyrosine kinase inhibitor CEP-11981 in patients with advanced cancer” (Investigational New Drugs, 2014).

Tests used:
VEGFR-2 = conditions: HUVEC; cited from earlier work
[1] = system: treatment refractory metastatic colorectal cancer; set-up: method as in PMID 23177514; conditions: phase III, monotherapy, versus 5.0 months, P = 0.0052; cited from earlier work

CNC(=O)c1cc(Oc2ccc(NC(=O)Nc3ccc(Cl)c(C(F)(F)F)c3)c(F)c2)ccn1 [regorafenib]
Overall survival [1]: 6.4 months
